Measurements: the NIST ThermoML archive (doi:10.1016/j.fluid.2011.02.010)

Assay: xn = mol fraction of the nth substance listed
Conditions: 101 kPa, Liquid; for speed of sound: Frequency=2 MHz

CCCCn1cc[n+](C)c1.[Cl-] [1-butyl-3-methylimidazolium chloride] + C[S+](C)[O-]
Conditions	mass density [kg/m3]	speed of sound [m/s]	viscosity [mPa·s]
298.15 K, x1 = 0.0111	1096.4	1514	2.13
298.15 K, x1 = 0.0341	1096.96	1544	2.62
298.15 K, x1 = 0.0713	1097.81	1582	3.43
298.15 K, x1 = 0.1122	1098.51	1618	4.35
298.15 K, x1 = 0.1731	1098.36	1658	5.83
298.15 K, x1 = 0.2433	1097.41	1694	7.62
298.15 K, x1 = 0.3032	1095.8	1718	9.17
298.15 K, x1 = 0.3705	1093.86	1742	10.99
298.15 K, x1 = 0.4746	1090.52	1778	13.86
298.15 K, x1 = 0.5997	1086.4	1810	17.36
298.15 K, x1 = 0.7115	1083.11	1834	20.5
298.15 K, x1 = 0.843	1079.14	1848	24.28
298.15 K, x1 = 0.9445	1076.25	1856	27.39
298.15 K, x1 = 1	1074.43	1868	29.21
303.15 K, x1 = 0.0111	1093.12	1490	1.93
303.15 K, x1 = 0.0341	1094.05	1522	2.35
303.15 K, x1 = 0.0713	1094.88	1562	3.04
303.15 K, x1 = 0.1122	1095.16	1598	3.86
303.15 K, x1 = 0.1731	1095.51	1638	5.12
303.15 K, x1 = 0.2433	1094.39	1672	6.66
303.15 K, x1 = 0.3032	1092.84	1698	8.04
303.15 K, x1 = 0.3705	1090.91	1718	9.63
303.15 K, x1 = 0.4746	1087.56	1752	12.14
303.15 K, x1 = 0.5997	1083.53	1792	15.22
303.15 K, x1 = 0.7115	1080.09	1820	17.99
303.15 K, x1 = 0.843	1076.19	1844	21.34
303.15 K, x1 = 0.9445	1073.27	1852	24.12
303.15 K, x1 = 1	1071.38	1860	25.72
308.15 K, x1 = 0.0111	1087.12	1478	1.77
308.15 K, x1 = 0.0341	1088.6	1510	2.12
308.15 K, x1 = 0.0713	1089.65	1550	2.68
308.15 K, x1 = 0.1122	1090.4	1586	3.31
308.15 K, x1 = 0.1731	1090.8	1630	4.34
308.15 K, x1 = 0.2433	1089.91	1664	5.53
308.15 K, x1 = 0.3032	1088.61	1690	6.63
308.15 K, x1 = 0.3705	1086.93	1712	7.91
308.15 K, x1 = 0.4746	1083.87	1748	9.96
308.15 K, x1 = 0.5997	1080.1	1786	12.5
308.15 K, x1 = 0.7115	1076.93	1812	14.79
308.15 K, x1 = 0.843	1072.98	1832	17.57
308.15 K, x1 = 0.9445	1070.09	1840	19.84
308.15 K, x1 = 1	1068.32	1848	21.21
318.15 K, x1 = 0.0111	1077.1	1450	1.51
318.15 K, x1 = 0.0341	1078.9	1484	1.82
318.15 K, x1 = 0.0713	1080.54	1520	2.3
318.15 K, x1 = 0.1122	1081.62	1550	2.87
318.15 K, x1 = 0.1731	1082.42	1592	3.76
318.15 K, x1 = 0.2433	1081.92	1634	4.81
318.15 K, x1 = 0.3032	1080.89	1662	5.78
318.15 K, x1 = 0.3705	1079.44	1688	6.93
318.15 K, x1 = 0.4746	1076.76	1720	8.79
318.15 K, x1 = 0.5997	1073.27	1758	11.1
318.15 K, x1 = 0.7115	1070.22	1788	13.18
318.15 K, x1 = 0.843	1066.58	1808	15.7
318.15 K, x1 = 0.9445	1063.76	1814	17.76
318.15 K, x1 = 1	1062.14	1820	18.97
328.15 K, x1 = 0.0111	1067.04	1422	1.17
328.15 K, x1 = 0.0341	1069.24	1454	1.44
328.15 K, x1 = 0.0713	1071.41	1490	1.89
328.15 K, x1 = 0.1122	1072.82	1520	2.37
328.15 K, x1 = 0.1731	1074.01	1564	3.14
328.15 K, x1 = 0.2433	1073.91	1604	4.06
328.15 K, x1 = 0.3032	1073.16	1630	4.89
328.15 K, x1 = 0.3705	1071.9	1658	5.92
328.15 K, x1 = 0.4746	1069.49	1694	7.6
328.15 K, x1 = 0.5997	1066.39	1730	9.68
328.15 K, x1 = 0.7115	1063.48	1760	11.56
328.15 K, x1 = 0.843	1060.06	1788	13.82
328.15 K, x1 = 0.9445	1057.44	1796	15.65
328.15 K, x1 = 1	1055.89	1804	16.74

CC[NH2+]CC.O=S(=O)([O-])O [diethylammonium hydrogen sulfate] + C[S+](C)[O-]
Conditions	mass density [kg/m3]	speed of sound [m/s]	viscosity [mPa·s]
298.15 K, x1 = 0.0569	–	1486	2.94
298.15 K, x1 = 0.1196	–	1476	4.13
298.15 K, x1 = 0.189	–	1466	5.55
298.15 K, x1 = 0.2461	–	1460	6.77
298.15 K, x1 = 0.308	–	1450	8.15
298.15 K, x1 = 0.3756	–	1444	9.66
298.15 K, x1 = 0.4494	–	1434	11.38
298.15 K, x1 = 0.5306	–	1428	13.31
298.15 K, x1 = 0.6201	–	1424	15.49
298.15 K, x1 = 0.6852	–	1420	17.12
298.15 K, x1 = 0.7552	–	1420	18.87
298.15 K, x1 = 0.8306	–	1426	20.88
298.15 K, x1 = 0.912	–	1428	23.1
298.15 K, x1 = 1	1028.39	1432	25.8
303.15 K, x1 = 0.0569	–	1462	2.53
303.15 K, x1 = 0.1196	–	1452	3.48
303.15 K, x1 = 0.189	–	1442	4.64
303.15 K, x1 = 0.2461	–	1434	5.62
303.15 K, x1 = 0.308	–	1426	6.74
303.15 K, x1 = 0.3756	–	1418	8.01
303.15 K, x1 = 0.4494	–	1410	9.41
303.15 K, x1 = 0.5306	–	1404	11.02
303.15 K, x1 = 0.6201	–	1400	12.83
303.15 K, x1 = 0.6852	–	1398	14.18
303.15 K, x1 = 0.7552	–	1398	15.65
303.15 K, x1 = 0.8306	–	1400	17.27
303.15 K, x1 = 0.9121	–	1404	19.14
303.15 K, x1 = 1	1023.97	1408	21.3
308.15 K, x1 = 0.0569	–	1446	2.33
308.15 K, x1 = 0.1196	–	1436	3.16
308.15 K, x1 = 0.189	–	1428	4.12
308.15 K, x1 = 0.2461	–	1418	4.94
308.15 K, x1 = 0.308	–	1410	5.85
308.15 K, x1 = 0.3756	–	1402	6.86
308.15 K, x1 = 0.4494	–	1396	8.02
308.15 K, x1 = 0.5306	–	1388	9.35
308.15 K, x1 = 0.6201	–	1384	10.89
308.15 K, x1 = 0.6852	–	1384	12.06
308.15 K, x1 = 0.7552	–	1382	13.39
308.15 K, x1 = 0.8306	–	1384	14.84
308.15 K, x1 = 0.9121	–	1388	16.38
308.15 K, x1 = 1	1020.54	1392	18.1
318.15 K, x1 = 0.0569	–	1414	2
318.15 K, x1 = 0.1196	–	1404	2.63
318.15 K, x1 = 0.189	–	1392	3.33
318.15 K, x1 = 0.2461	–	1386	3.93
318.15 K, x1 = 0.308	–	1378	4.59
318.15 K, x1 = 0.3756	–	1370	5.34
318.15 K, x1 = 0.4494	–	1362	6.22
318.15 K, x1 = 0.5306	–	1356	7.19
318.15 K, x1 = 0.6201	–	1350	8.32
318.15 K, x1 = 0.6852	–	1348	9.16
318.15 K, x1 = 0.7552	–	1346	10.1
318.15 K, x1 = 0.8306	–	1348	11.1
318.15 K, x1 = 0.9121	–	1352	12.3
318.15 K, x1 = 1	1012.68	1356	13.61
328.15 K, x1 = 0.0569	–	1400	1.6
328.15 K, x1 = 0.1196	–	1406	2.24
328.15 K, x1 = 0.189	–	1392	2.95
328.15 K, x1 = 0.2461	–	1382	3.51
328.15 K, x1 = 0.308	–	1372	4.12
328.15 K, x1 = 0.3756	–	1362	4.77
328.15 K, x1 = 0.4494	–	1352	5.46
328.15 K, x1 = 0.5306	–	1342	6.21
328.15 K, x1 = 0.6201	–	1332	7.02
328.15 K, x1 = 0.6852	–	1326	7.57
328.15 K, x1 = 0.7552	–	1322	8.17
328.15 K, x1 = 0.8306	–	1320	8.8
328.15 K, x1 = 0.9121	–	1322	9.48
328.15 K, x1 = 1	1004.83	1324	10.2
